Laboratory results as given in DBAASP.
Converted amounts (≈) assume the structure as drawn. One block for each compound: values may come before it.

Experiments:
Test in all cases: ≥ marks a high value that may be exact or a test limit, other limits are often not marked, values filed in µg/mL are converted to µM
[1] = test system: Staphylococcus aureus ATCC 25023
[2] = test system: Acholeplasma laidlawii A-PG8
Bacillus megaterium KM = test system: Bacillus megaterium KM
Escherichia coli K-12 = test system: Escherichia coli K-12
Micrococcus luteus A270 = test system: Micrococcus luteus A270
[3] = test system: Pseudomonas aeruginosa ATCC 27853
[4] = test system: Salmonella typhimurium CIP 6062
[5] = test system: Sinorhizobium meliloti 102F34
[6] = test system: Spiroplasma melliferum BC3
[7] = test system: Staphylococcus aureus ATCC 25923
Bacillus cereus AS1.126 = test system: Bacillus cereus AS1.126
[8] = test system: Candida albicans CMCC 98001
[9] = test system: Enterobacter cloacae CGMCC 1.58
[10] = test system: Enterococcus faecalis CGMCC 1.595
[11] = test system: Enterococcus faecium CGMCC 1.2334
Escherichia coli AS1.349 = test system: Escherichia coli AS1.349
[12] = test system: Fusobacterium nucleatum CGMCC 1.2526
[13] = test system: Klebsiella aerogenes CGMCC 1.876
[14] = test system: Klebsiella pneumoniae subsp. pneumoniae CGMCC 1.176
[15] = test system: Lactobacillus acidophilus CGMCC 1.1854
[16] = test system: Lactococcus lactis AS1.1690
[17] = test system: Pseudomonas aeruginosa CGMCC 1.860
[18] = test system: Staphylococcus aureus AS1.72
[19] = test system: Streptococcus mutans CGMCC 1.2500
[20] = test system: Streptococcus salivarius CGMCC 1.2498
[21] = test system: Streptococcus sanguinis CGMCC 1.2497
Bacillus cereus = test system: Bacillus cereus
Bacillus megaterium = test system: Bacillus megaterium
Bacillus sp. ATCC 14412 = test system: Bacillus sp. ATCC 14412
Candida albicans A39 = test system: Candida albicans A39
Candida glabrata = test system: Candida glabrata
Candida krusei = test system: Candida krusei
[22] = test system: Cryptococcus neoformans Steroform A
[23] = test system: Cryptococcus neoformans Steroform B
[24] = test system: Cryptococcus neoformans Steroform C
[25] = test system: Cryptococcus neoformans Steroform D
Escherichia coli = test system: Escherichia coli
Micrococcus luteus = test system: Micrococcus luteus
[26] = test system: Staphylococcus haemolyticus
Yarrowia lipolytica = test system: Yarrowia lipolytica
Enterobacter cloacae = test system: Enterobacter cloacae
[27] = test system: Escherichia coli ATCC 25922
Escherichia coli P4 = test system: Escherichia coli P4
Klebsiella aerogenes = test system: Klebsiella aerogenes
Klebsiella pneumoniae = test system: Klebsiella pneumoniae
Pseudomonas aeruginosa = test system: Pseudomonas aeruginosa
Serratia marcescens = test system: Serratia marcescens
[28] = test system: Staphylococcus aureus ATCC 29213
[29] = test system: Enterococcus faecalis ATCC 29212
[30] = test system: Enterococcus faecalis NCTC 12203
Escherichia coli UB1005 = test system: Escherichia coli UB1005
Staphylococcus aureus MR = test system: Staphylococcus aureus MR
[31] = test system: Staphylococcus epidermidis

- MIC [1]: ≥ 125 µM
Structure (SMILES): CC(C)C[C@H](NC(=O)[C@H](CCCN=C(N)N)NC(=O)[C@H](CC(C)C)NC(=O)[C@H](CC(C)C)NC(=O)[C@H](CC(C)C)NC(=O)[C@H](CCCCN)NC(=O)[C@H](CC(C)C)NC(=O)[C@@H](N)CCCN=C(N)N)C(N)=O [RLKLLLRL]

- MIC [2]: 12.5 µM (≈ 25 µg/mL)
- MIC (Bacillus megaterium KM): 3.12 µM (≈ 6.23 µg/mL)
- MIC (Escherichia coli K-12): 10 µM (≈ 20 µg/mL)
- MIC (Micrococcus luteus A270): 3 µM (≈ 6 µg/mL)
- MIC [3]: > 100 µM
- MIC [4]: ≥ 100 µM
- MIC [5]: 12.5 µM (≈ 25 µg/mL)
- MIC [6]: ≥ 50 µM
- MIC [7]: > 100 µM
Structure (SMILES): CC[C@H](C)[C@H](NC(=O)CNC(=O)[C@H](CO)NC(=O)[C@H](C)NC(=O)[C@@H](NC(=O)[C@H](CCCCN)NC(=O)[C@H](CO)NC(=O)[C@H](CCSC)NC(=O)[C@H](Cc1c[nH]c2ccccc12)NC(=O)CN)[C@@H](C)CC)C(=O)NCC(=O)N[C@H](C(=O)N[C@@H](Cc1ccccc1)C(=O)N[C@@H](CC(C)C)C(=O)N[C@@H](CO)C(=O)NCC(=O)N[C@@H](CCSC)C(=O)N[C@@H](CCC(N)=O)C(=O)N[C@@H](CCC(N)=O)C(N)=O)[C@@H](C)O [GWMSKIASGIGTFLSGMQQ]

- MIC (Bacillus cereus AS1.126): 3.12 µM (≈ 4.4 µg/mL)
- MIC [8]: 12.5 µM (≈ 17.6 µg/mL)
- MIC [9]: 3.12 µM (≈ 4.4 µg/mL)
- MIC [10]: 6.25 µM (≈ 8.81 µg/mL)
- MIC [11]: 6.25 µM (≈ 8.81 µg/mL)
- MIC (Escherichia coli AS1.349): 3.12 µM (≈ 4.4 µg/mL)
- MIC [12]: 18.8 µM (≈ 26.4 µg/mL)
- MIC [13]: 3.12 µM (≈ 4.4 µg/mL)
- MIC [14]: 6.25 µM (≈ 8.81 µg/mL)
- MIC [15]: 25 µM (≈ 35.2 µg/mL)
- MIC [16]: 3.12 µM (≈ 4.4 µg/mL)
- MIC [17]: 3.12 µM (≈ 4.4 µg/mL)
- MIC [18]: 3.12 µM (≈ 4.4 µg/mL)
- MIC [19]: 12.5 µM (≈ 17.6 µg/mL)
- MIC [20]: 6.25 µM (≈ 8.81 µg/mL)
- MIC [21]: 3.13 µM (≈ 4.41 µg/mL)
Structure (SMILES): CC[C@H](C)[C@H](N)C(=O)N[C@@H](CCCCN)C(=O)N[C@@H](CCCCN)C(=O)N[C@H](C(=O)N[C@H](C(=O)N[C@@H](CO)C(=O)N[C@@H](CCCCN)C(=O)N[C@H](C(=O)N[C@@H](CCCCN)C(=O)N[C@@H](CCCCN)C(=O)N[C@@H](CC(C)C)C(=O)N[C@@H](CC(C)C)C(N)=O)[C@@H](C)CC)C(C)C)[C@@H](C)CC [IKKIVSKIKKLL]

- MIC (Bacillus cereus): ≥ 50 µM
- MIC (Bacillus megaterium): ≥ 50 µM
- MIC (Bacillus sp. ATCC 14412): 4.42 µM (≈ 11.2 µg/mL)
- MIC (Candida albicans A39): 17.7 µM (≈ 44.8 µg/mL)
- MIC (Candida glabrata): 7.07 µM (≈ 17.9 µg/mL)
- MIC (Candida krusei): 7.07 µM (≈ 17.9 µg/mL)
- MIC [22]: 3.16 µM (≈ 8.02 µg/mL)
- MIC [23]: 3.16 µM (≈ 8.02 µg/mL)
- MIC [24]: 1.79 µM (≈ 4.53 µg/mL)
- MIC [25]: 1.13 µM (≈ 2.87 µg/mL)
- MIC (Escherichia coli): > 50 µM
- MIC (Micrococcus luteus): 8.84 µM (≈ 22.4 µg/mL)
- MIC (Yarrowia lipolytica): 3.16 µM (≈ 8.02 µg/mL)
Structure (SMILES): CC[C@H](C)[C@H](NC(=O)[C@H](Cc1ccccc1)NC(=O)[C@@H](NC(=O)[C@@H]1CCCN1C(=O)[C@H](CCCN=C(N)N)NC(=O)[C@H](CO)NC(=O)[C@@H]1CCCN1C(=O)[C@H](CCCCN)NC(=O)[C@H](CCCN=C(N)N)NC(=O)[C@H](CC(C)C)NC(=O)[C@@H]1CCCN1C(=O)[C@H](CCCN=C(N)N)NC(=O)[C@@H](NC(=O)[C@H](Cc1ccc(O)cc1)NC(=O)CNC(=O)[C@H](CO)NC(=O)[C@H](CO)NC(=O)[C@@H](N)Cc1cnc[nH]1)[C@@H](C)O)[C@@H](C)CC)C(=O)N[C@@H](CCCN=C(N)N)C(=O)N1CCC[C@H]1C(=O)N[C@H](C(=O)NCC(N)=O)[C@@H](C)CC [HSSGYTRPLRKPSRPIFIRPIG]
- MIC [26]: ≥ 50 µM

- MIC (Enterobacter cloacae): 15.3 µM (≈ 45.3 µg/mL)
- MIC [27]: 15.3 µM (≈ 45.3 µg/mL)
- MIC (Escherichia coli P4): 10.8 µM (≈ 32 µg/mL)
- MIC (Escherichia coli): 15.3 µM (≈ 45.3 µg/mL)
- MIC (Klebsiella aerogenes): 21.6 µM (≈ 64 µg/mL)
- MIC (Klebsiella pneumoniae): 15.3 µM (≈ 45.3 µg/mL)
- MIC (Pseudomonas aeruginosa): 43.2 µM (≈ 128 µg/mL)
- MIC (Serratia marcescens): ≥ 173 µM
- MIC [28]: 21.6 µM (≈ 64 µg/mL)
Structure (SMILES): CC[C@H](C)[C@H](NC(=O)[C@H](Cc1ccccc1)NC(=O)[C@H](CC(N)=O)NC(=O)[C@H](CCCCN)NC(=O)[C@H](CCCN=C(N)N)NC(=O)[C@H](C)NC(=O)[C@H](CCCCN)NC(=O)[C@H](Cc1c[nH]c2ccccc12)NC(=O)[C@@H](N)CCCCN)C(=O)N[C@@H](CCCCN)C(=O)NCC(=O)N[C@@H](CO)C(=O)N[C@@H](CO)C(=O)N[C@@H](CC(C)C)C(=O)NCC(=O)N[C@@H](Cc1c[nH]c2ccccc12)C(=O)N[C@@H](CC(C)C)C(=O)N[C@H](C(=O)N[C@@H](CCC(N)=O)C(=O)N[C@@H](CC(C)C)C(=O)N[C@@H](Cc1ccccc1)C(=O)N[C@@H](CCCN=C(N)N)C(=O)N[C@@H](CCCCN)C(=O)N[C@@H](CCCN=C(N)N)C(=O)O)[C@@H](C)CC [KWKARKNFIKGSSLGWLIQLFRKR]

- MIC [29]: 0.726 µM (≈ 0.999 µg/mL)
- MIC [30]: 0.726 µM (≈ 0.999 µg/mL)
- MIC [27]: 1.45 µM (≈ 2 µg/mL)
- MIC (Escherichia coli UB1005): 2.91 µM (≈ 4 µg/mL)
- MIC (Escherichia coli): 1.45 µM (≈ 2 µg/mL)
- MIC [28]: 0.363 µM (≈ 0.5 µg/mL)
- MIC (Staphylococcus aureus MR): 0.363 µM (≈ 0.5 µg/mL)
- MIC [31]: 0.182 µM (≈ 0.25 µg/mL)
Structure (SMILES): CC[C@H](C)[C@H](NC(=O)[C@H](CCCCN)NC(=O)[C@@H](N)Cc1c[nH]c2ccccc12)C(=O)N[C@H](C(=O)N[C@@H](Cc1ccccc1)C(=O)N[C@@H](Cc1c[nH]c2ccccc12)C(=O)N[C@@H](Cc1c[nH]c2ccccc12)C(=O)N[C@@H](CCCN=C(N)N)C(=O)N[C@@H](CCCN=C(N)N)C(N)=O)C(C)C [WKIVFWWRR]
